Solubility data for 63 compounds are collected here from the OPERA property sets (Mansouri et al. 2018).

Molecules are shown by their SMILES. Values after ≈ are worked out from the molar mass of the structure shown.

The conditions of the first series: 25 °C.
For orientation: solubility means how much of the substance goes into solution per volume. Read a high solubility as a readily soluble substance. Take `c1ccc2c(c1)Cc1cc3ccccc3cc1-2`: the solubility came out at 1.1e-05 mM (≈ 0.00238 µg/mL).
In turn, `CCCCC1(CC)C(=O)NC(=O)NC1=O` displayed a solubility of 23 mM (≈ 4880 µg/mL).
The compound `COC(=O)C(=O)OC` displayed a solubility of 511 mM (≈ 60300 µg/mL).
Same read-out and setting: to `Clc1cc(Cl)c(-c2c(Cl)cc(Cl)cc2Cl)c(Cl)c1` belongs 1.13e-06 mM (≈ 0.000408 µg/mL); to `CC(C)(C)C(=O)C1C(=O)c2ccccc2C1=O`, 0.0782 mM (≈ 18 µg/mL); to `CCc1cccs1`, 2.6 mM (≈ 292 µg/mL).
`Nc1ccc(-c2ccc(N)cc2)cc1`: the solubility was found to be 1.75 mM (≈ 322 µg/mL).
As for `CCCCCCCCCC`, the solubility is 0.000365 mM (≈ 0.052 µg/mL).
Same read-out and setting: to `CCCCCCCCl` belongs 0.101 mM (≈ 13.6 µg/mL).
In turn, `COc1ccc2c(c1OC)C(=O)OC2` registered a solubility of 12.9 mM (≈ 2500 µg/mL).
In turn, `COP(=O)(Oc1ccccc1)Oc1ccccc1` gave a solubility of 7.57 mM (≈ 2000 µg/mL).
On to `CCCCCCCCN`, for which the solubility worked out at 1.55 mM (≈ 200 µg/mL).
Compound `C=C[C@H]1CN2CCC1C[C@@H]2[C@@H](O)c1ccnc2ccccc12` (stereo partly drawn) returned a solubility of 0.744 mM (≈ 219 µg/mL).
Consider `CC1=CCCCC1`, for which the solubility was 0.541 mM (≈ 52 µg/mL).
As to `O=S(=O)(Cl)c1ccc(I)cc1`, the solubility stood at 0.0539 mM (≈ 16.3 µg/mL).
On to `C#C[C@]1(OC(C)=O)CC[C@H]2[C@@H]3CCC4=CC(=O)CC[C@@H]4[C@H]3CC[C@@]21C`, for which the solubility worked out at 0.0161 mM (≈ 5.47 µg/mL).
On to `Fc1cc(F)c(F)c(F)c1`, for which the solubility was determined as 4.95 mM (≈ 742 µg/mL).
For `CCOP(=S)(OCC)O/N=C(\C#N)c1ccccc1`, the solubility was determined as 0.0179 mM (≈ 5.35 µg/mL).
As for `O=C(Oc1ccccc1)c1ccccc1O`, the solubility is 0.7 mM (≈ 150 µg/mL).
In the case of `CCc1ccc(O)cc1`, the solubility is 33.5 mM (≈ 4090 µg/mL).
Compound `OC(c1ccccc1)(c1ccccc1)c1ccccc1` registered a solubility of 5.5 mM (≈ 1430 µg/mL).
With `c1cnc2c(c1)ccc1cccnc12`, the solubility was 14.9 mM (≈ 2690 µg/mL).
As to `c1ccc(Cc2ccccc2)cc1`, the solubility came to 0.0838 mM (≈ 14.1 µg/mL).
The same measure, in the same setting: to `Clc1ccc(-c2ccc(Cl)c(Cl)c2)cc1Cl` belongs 1.95e-06 mM (≈ 0.000569 µg/mL).
Compound `CN(C)CC/C=C1\c2ccccc2COc2ccccc21` gave a solubility of 0.113 mM (≈ 31.6 µg/mL).
`CC(C)C(O)C(C)C` showed a solubility of 60.2 mM (≈ 7000 µg/mL).
`CN(C)[C@@H]1C(O)=C(C(N)=O)C(=O)[C@@]2(O)C(O)=C3C(=O)c4c(O)cccc4[C@@](C)(O)[C@H]3[C@H](O)[C@@H]12` returned a solubility of 0.68 mM (≈ 313 µg/mL).
With `CC(C)(C)CC(=O)OCC(=O)[C@@]1(O)CC[C@H]2[C@@H]3CCC4=CC(=O)CC[C@]4(C)[C@H]3[C@@H](O)C[C@@]21C`, the solubility was 0.00308 mM (≈ 1.42 µg/mL).
The same measure, in the same setting: then `C1=CC=CCC=C1`, with 6.73 mM (≈ 620 µg/mL); and `Clc1cccc(Cl)c1-c1ccccc1`, with 0.0108 mM (≈ 2.41 µg/mL).
Regarding `O=C(O)c1cc(I)cc(I)c1O`, the solubility was 0.493 mM (≈ 192 µg/mL).
Turning to `CC(C)CC(C)(C)C`, the solubility is 0.0196 mM (≈ 2.24 µg/mL).
As for `O=C(O)COc1cccc(Cl)c1Cl`, the solubility worked out at 1.55 mM (≈ 343 µg/mL).
Regarding `CC(C(=O)O)C(=O)O`, the solubility was found to be 5750 mM (≈ 679000 µg/mL).
Still for that read-out and setting: to `CCCCC(C)O` (stereo not drawn) belongs 134 mM (≈ 13700 µg/mL); to `Cc1ccc(C)c(O)c1`, 29 mM (≈ 3540 µg/mL); to `Oc1ccc(-c2ccccc2)cc1`, 0.33 mM (≈ 56.2 µg/mL).
Take `C=CCCCC=C`: the solubility is 0.458 mM (≈ 44 µg/mL).
The same measure, in the same setting: to `Cc1c(C(=O)O)c(O)cc2c1C(=O)c1c(O)c([C@@H]3O[C@H](CO)[C@@H](O)[C@H](O)[C@H]3O)c(O)c(O)c1C2=O` belongs 2.64 mM (≈ 1300 µg/mL); to `S=C=Nc1cccc(Cl)c1`, 0.112 mM (≈ 19 µg/mL); to `C=CCc1ccc(OC)cc1`, 1.2 mM (≈ 178 µg/mL).
The same measure, in the same setting: to `c1ccc(-c2ccccc2-c2ccccc2)cc1` belongs 0.00538 mM (≈ 1.24 µg/mL); to `NCCCCCC(=O)O`, 3850 mM (≈ 505000 µg/mL); to `O=C1CCCCC1`, 255 mM (≈ 25000 µg/mL).
On the same count and under the same terms, then `N[C@@H](Cc1cnc[nH]1)C(=O)O`, with 294 mM (≈ 45600 µg/mL); and `ClCCCCl`, with 24.3 mM (≈ 2750 µg/mL).
As to `CC1(C)[C@H](C(=O)O)CC[C@]1(C)C(=O)O`, the solubility turned out to be 38 mM (≈ 7600 µg/mL).
As for `Clc1cc(-c2ccccc2)c(Cl)c(Cl)c1Cl`, the solubility worked out at 4.8e-05 mM (≈ 0.014 µg/mL).
As to `O=C(O)c1ccc([N+](=O)[O-])cc1[N+](=O)[O-]`, the solubility stood at 85.8 mM (≈ 18200 µg/mL).
For the compound `C[C@]12CC[C@H](O)CC1=CC[C@@H]1[C@@H]2CC[C@]2(C)C(=O)CC[C@@H]12`, the solubility came to 0.129 mM (≈ 37.2 µg/mL).
In turn, `CCC(C)c1cc([N+](=O)[O-])cc([N+](=O)[O-])c1OC(C)=O` (stereo not drawn) yielded a solubility of 7.79 mM (≈ 2200 µg/mL).
On the same count and under the same terms, to `CCC1(C2=CCCCCC2)C(=O)NC(=O)NC1=O` belongs 0.999 mM (≈ 250 µg/mL); to `Fc1cccc(CCl)c1`, 2.86 mM (≈ 414 µg/mL).
`CCC(C)C(C)C` (stereo not drawn): the solubility is 0.0524 mM (≈ 5.25 µg/mL).

The series is the same for the next values; noted with them: 27 °C.
As for `C#C[C@]1(O)CC[C@H]2[C@@H]3CCC4=CC(=O)CC[C@]4(C)[C@H]3CC[C@@]21C`, the solubility was 0.0022 mM (≈ 0.687 µg/mL).

Staying with this series, now noted: 30 °C.
The compound `COc1cnc(NS(=O)(=O)c2ccc(N)cc2)nc1` displayed a solubility of 2.6 mM (≈ 730 µg/mL).
For `CC1OC(C)OC(C)O1` (stereo not drawn), the solubility was determined as 847 mM (≈ 112000 µg/mL).
In turn, `COc1ccc([N+](=O)[O-])cc1` had a solubility of 3.85 mM (≈ 590 µg/mL).
For `CCCCC1C(=O)N(c2ccccc2)N(c2ccc(O)cc2)C1=O` (stereo not drawn), the solubility was 0.185 mM (≈ 60 µg/mL).
On the same count and under the same terms, to `CN(C)CCN(Cc1ccccc1)c1ccccn1` belongs 2.3 mM (≈ 587 µg/mL).
Still for that read-out and setting: to `CCN(CC)CCOC(=O)c1ccc(N)cc1` belongs 40 mM (≈ 9450 µg/mL); to `CCCCC(=O)CCCC`, 2.55 mM (≈ 363 µg/mL); to `CCCCn1c(=O)c2c(ncn2C)n(C)c1=O`, 23.7 mM (≈ 5600 µg/mL).
